Test results published in ChEMBL document CHEMBL4831527, “Structure-Based Design and Discovery of Pyridyl-Bearing Fused Bicyclic HIV-1 Inhibitors: Synthesis, Biological Characterization, and Molecular Modeling Studies” (J Med Chem, 2021).
The source made the active and inactive calls. The calls are words filed in the database; no cut-off is given here.

Columns and labels:
[1] = test system: Human immunodeficiency virus 2; test: Antiviral activity against HIV2 ROD infected in human MT4 cells assessed as protection against virus-induced cytopathogenicity after 5 days by MTT assay; assay type: functional, organism-based; conditions: time 5.0 day
[2] = test system: Human immunodeficiency virus 1; test: Antiviral activity against HIV1 3B infected in human MT4 cells assessed as protection against virus-induced cytopathic effect incubated for 5 days by MTT assay; assay type: functional, organism-based; conditions: Human immunodeficiency virus 1, 3B, MT4, 120 h
[3] = in vitro; conditions: human, liver microsomes
[4] = test system: Human immunodeficiency virus 1; test: Antiviral activity against HIV1 harboring reverse transcriptase K103N mutant infected in human MT4 cells assessed as protection against virus-induced cytopathic effect incubated for 5 days by MTT assay; assay type: functional, organism-based; conditions: Human immunodeficiency virus 1, MT4, 120 h
[5] = Selectivity index, ratio of CC50 for mock-infected human MT4 cells to EC50 for HIV1 3B infected in human MT4 cells; assay type: toxicity, cell-based; conditions: MT4 cells (mock-infected and HIV1 3B infected), read-out: Ratio CC50/EC50
[6] = test system: Human immunodeficiency virus 1; test: Antiviral activity against HIV1 harboring reverse transcriptase E138K mutant infected in human MT4 cells assessed as protection against virus-induced cytopathic effect incubated for 5 days by MTT assay; assay type: functional, organism-based; conditions: Human immunodeficiency virus 1, MT4, 120 h
[7] = test system: Human immunodeficiency virus 1; test: Antiviral activity against HIV1 harboring reverse transcriptase Y181C mutant infected in human MT4 cells assessed as protection against virus-induced cytopathic effect incubated for 5 days by MTT assay; assay type: functional, organism-based; conditions: Human immunodeficiency virus 1, MT4, 120 h
[8] = test system: Human immunodeficiency virus 1; test: Antiviral activity against HIV1 harboring reverse transcriptase F227L/V106A double mutant infected in human MT4 cells assessed as protection against virus-induced cytopathic effect incubated for 5 days by MTT assay; assay type: functional, organism-based; conditions: Human immunodeficiency virus 1, MT4, 120 h
[9] = test system: Human immunodeficiency virus 1; test: Antiviral activity against HIV1 RES056 infected in human MT4 cells assessed as protection against virus-induced cytopathic effect incubated for 5 days by MTT assay; assay type: functional, organism-based; conditions: Human immunodeficiency virus 1, RES056, MT4, 120 h
[10] = test system: Human immunodeficiency virus 1; test: Antiviral activity against HIV1 harboring reverse transcriptase Y188L mutant infected in human MT4 cells assessed as protection against virus-induced cytopathic effect incubated for 5 days by MTT assay; assay type: functional, organism-based; conditions: Human immunodeficiency virus 1, MT4, 120 h
[11] = test system: Human immunodeficiency virus 1; test: Potency index, ratio of ETR EC50 to test compound EC50 for antiviral activity against HIV1 harboring reverse transcriptase E138K mutant infected in human MT4 cells; assay type: functional
[12] = Half life in human liver microsomes at 1 uM in presence of NADPH by LC-MS/MS analysis; assay type: ADME, Microsome
[13] = test system: Human immunodeficiency virus 1; test: Antiviral activity against HIV1 harboring reverse transcriptase L100I mutant infected in human MT4 cells assessed as protection against virus-induced cytopathic effect incubated for 5 days by MTT assay; assay type: functional, organism-based; conditions: Human immunodeficiency virus 1, MT4, 120 h
[14] = Cytotoxicity against mock-infected human MT4 cells assessed as reduction in cell viability measured after 5 days by MTT assay; assay type: cell-based; conditions: time 5 day
[15] = biological target: Human immunodeficiency virus type 1 reverse transcriptase (Human immunodeficiency virus 1, UniProt Q72547); test: Inhibition of wild type HIV1 p66/p51 reverse transcriptase using poly(rA) as template, oligo(dT)16 as primer and RNA/DNA as substrate measured after 40 mins by PICOGreen-dye based spectrofluorimetry analysis
[16] = Selectivity index, ratio of CC50 for mock-infected human MT4 cells to EC50 for HIV1 RES056 infected in human MT4 cells; assay type: toxicity, cell-based; conditions: MT4 cells (mock-infected and HIV1 RES056 infected), read-out: Ratio CC50/EC50

Cc1cc(C#N)cc(C)c1Oc1nc(Nc2ccc(C#N)cc2)nc2c1ccn2CC(=O)N1CCOCC1
Activity [1]: inactive | EC50 [2]: 0.0077 µM | CLint scaled at 1 h, 1 µM [3]: 23.8 L/h/kg | EC50 [4]: 0.0059 µM | selectivity ratio [5]: 297 | EC50 [6]: 0.0068 µM | EC50 [7]: 0.148 µM | EC50 [8]: 0.146 µM | EC50 [9]: 0.782 µM | EC50 [10]: 0.0567 µM | Ratio EC50 [11]: 2.2 | half-life at 1 µM [12]: 3.1 min | EC50 [13]: 0.154 µM | CC50 at 120 h [14]: 2.3 µM | IC50 [15]: 0.155 µM | selectivity ratio [16]: 3
